Assay results taken from patent US11976084B2, “Spiropyrrolidine derived antiviral agents” (Enanta Pharmaceuticals, Inc., priority 2020, dated 2024).
pIC50: −log10 of the molar value.

The compounds below were run against SARS-CoV-2 3CL-protease (Severe acute respiratory syndrome coronavirus 2, UniProt P0DTD1) (assay: SARS-CoV-2 3C-like (3CL) protease fluorescence assay (FRET)). Conditions: recombinant SARS-CoV-2 3CL-protease 10 nM, 30 min preincubation at RT, TAMRA-[…]-Dabcyl-OH substrate, run in duplicate.
Format: biochemical
Procedure: SARS-CoV-2 3C-like (3CL) protease fluorescence assay (FRET): Recombinant SARS-CoV-2 3CL-protease was expressed and purified. TAMRA-[…]-Dabcyl-OH peptide 3CLpro substrate was synthesized. Black, low volume, round-bottom, 384 well microplates were used. In a typical assay, 0.85 μL of test compound was dissolved in DMSO then incubated with SARS-CoV-2 3CL-protease (10 nM) in 10 μL assay buffer (50 mM HEPES [pH 7.5], 1 mM DTT, 0.01% BSA, 0.01% Triton-X 100) for 30 min at RT. Next, 10 μL of 3CL-protease substrate (40 μM) in assay buffer was added and the assays were monitored continuously for 1 h in an Envision multimode plate reader operating in fluorescence kinetics mode with excitation at 540 nm and emission at 580 nm at RT. No compound (DMSO only) and no enzyme controls were routinely included in each plate. All experiments were run in duplicate. Data Analysis: SARS-CoV-2 3CL-protease enzyme activity was measured as initial velocity of the linear phase (RFU/s) and normalized to controlled samples DMSO (100% activity) and no enzyme (0% activity) to determine percent residual activity at various concentrations of test compounds (0-10 μM). Data were fitted to normalized activity (variable slope) versus concentration fit in GraphPad Prism 7 to determine IC50.

Compound	pIC50
COc1cccc2[nH]c(C(=O)N3C[C@@H]4CCC[C@@H]4[C@H]3C(=O)N3C[C@]4(C[C@H]3C#N)C(=O)Nc3ccccc34)cc12 [Example 1]	> 7.00
COc1cccc2[nH]c(C(=O)N3CC4(CC4)C[C@H]3C(=O)N3C[C@]4(C[C@H]3C#N)C(=O)Nc3ccccc34)cc12 [Example 2]	6.00 to 7.00
COc1cccc2oc(C(=O)N3C[C@H]4[C@@H]([C@H]3C(=O)N3C[C@]5(C[C@H]3C#N)C(=O)Nc3ccccc35)C4(C)C)cc12 [Example 3]	> 7.00
COc1cccc2[nH]c(C(=O)N3C[C@@]4(C[C@H]3C(=O)N3C[C@]5(C[C@H]3C#N)C(=O)Nc3ccccc35)CC4(F)F)cc12 [Example 4]	6.00 to 7.00
COc1cccc2[nH]c(C(=O)N3[C@@H]4C[C@@H]4C[C@H]3C(=O)N3C[C@]4(C[C@H]3C#N)C(=O)Nc3ccccc34)cc12 [Example 5]	> 7.00
N#C[C@@H]1C[C@@]2(CN1C(=O)[C@@H]1[C@H]3CCC[C@H]3CN1C(=O)OCc1ccccc1)C(=O)Nc1ccccc12 [Example 6]	6.00 to 7.00
N#C[C@@H]1C[C@@]2(CN1C(=O)[C@@H]1[C@H]3CCC[C@H]3CN1C(=O)c1cc3c(F)cc(F)cc3[nH]1)C(=O)Nc1ccccc12 [Example 7]	6.00 to 7.00
CC1(C)[C@@H]2[C@@H](C(=O)N3C[C@]4(C[C@H]3C#N)C(=O)Nc3ccccc34)N(C(=O)c3cc4c(OC(F)F)cccc4[nH]3)C[C@@H]21 [Example 8]	6.00 to 7.00
